{
  "source": "patent US20020137929A1",
  "about": "“1 - (3-heterocyclylphenyl) isothiourea, -isourea, -guanidine and -amidine herbicidal agents” (Intellectual Property Department, BASF Aktiengesellschaft, priority 1998, published 2002)",
  "key": {"GALAP (Galium) [1]": {"test_system": "GALAP (Galium)", "experiment": "Postemergence herbicidal evaluation", "format": "in vivo, Galium aparine", "conditions": "postemergence", "in_short": "(§1)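 Young plants, roughly two weeks from seeding, receive the active ingredient as a sprayed dispersion (acetone/water 50/50, 0.5% TWEEN 20) at 40 psi. Doses span about 0.0156 to 0.500 kg/ha. A visual score from 0 to 9 compares treated with control plants four to five weeks on.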"}, "[2]": {"test_system": "GLXMAW (Soybean, Williams)", "experiment": "Postemergence herbicidal evaluation", "format": "in vivo, Glycine max, (L.) Merr. cv Williams", "conditions": "postemergence", "in_short": "as §1"}, "[3]": {"test_system": "SAGPY (Arrowhead (Pygmaea))", "experiment": "Preemergence weed control under flooded paddy conditions", "format": "in vivo, Sagittaria pygmaea", "conditions": "0.2500 kg/ha, rated 3-4 weeks after treatment", "in_short": "(§2)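 Flooded-pot preemergence screen with silt loam and seeds in the upper 0.5 cm. Dose about 0.0313 to 0.500 kg/ha, delivered into flood water; visual 0-9 score after 3 to 4 weeks.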"}, "MOOVA (Monochoria)": {"test_system": "MOOVA (Monochoria)", "experiment": "Preemergence weed control under flooded paddy conditions", "format": "in vivo, Monochoria vaginalis", "conditions": "0.2500 kg/ha, rated 3-4 weeks after treatment", "in_short": "as §2"}, "ORYSAT (Rice, Tebonnet)": {"test_system": "ORYSAT (Rice, Tebonnet)", "experiment": "Preemergence herbicidal evaluation", "format": "in vivo, Oryza sativa, (L.) Tebonnet", "conditions": "rated 4-5 weeks after treatment, rating scale 0-9", "in_short": "(§3)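 Seeds were mixed with potting soil and planted on about one inch of soil, then sprayed with test compound in aqueous acetone at about 0.0156 to 0.500 kg per hectare. Plants grew under standard greenhouse care and were visually rated 0-9 against untreated controls 4-5 weeks post-treatment.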"}, "GALAP (Galium) [4]": {"test_system": "GALAP (Galium)", "experiment": "Preemergence herbicidal evaluation", "format": "in vivo, Galium aparine", "conditions": "rated 4-5 weeks after treatment, rating scale 0-9", "in_short": "as §3"}, "[5]": {"test_system": "ECHORC (Watergrass (Calif.))", "experiment": "Preemergence weed control under flooded paddy conditions", "format": "in vivo, Echinochloa oryzoides", "conditions": "0.2500 kg/ha, rated 3-4 weeks after treatment", "in_short": "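Seeds or propagules sown in silt loam kept flooded 1.5-3 cm; compounds in 50/50 acetone/water pipetted into flood water at about 0.0313 to 0.500 kg/ha. Greenhouse; visual 0-9 rating versus untreated control 3-4 weeks after treatment.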"}, "[6]": {"test_system": "TRZAWR (Wheat, Winter, cv Riband)", "experiment": "Postemergence herbicidal evaluation", "format": "in vivo, Triticum aestivum", "conditions": "postemergence", "in_short": "as §1"}, "CYPSE (Flatsedge)": {"test_system": "CYPSE (Flatsedge)", "experiment": "Preemergence weed control under flooded paddy conditions", "format": "in vivo, Cyperus serotinus", "conditions": "0.2500 kg/ha, rated 3-4 weeks after treatment", "in_short": "as §2"}, "AMBEL (Ragweed, Common)": {"test_system": "AMBEL (Ragweed, Common)", "experiment": "Postemergence herbicidal evaluation", "format": "in vivo, Ambrosia artemisifolia", "conditions": "postemergence", "in_short": "as §1"}, "CASOB (Sicklepod)": {"test_system": "CASOB (Sicklepod)", "experiment": "Postemergence herbicidal evaluation", "format": "in vivo, Cassia obtusifolia", "conditions": "postemergence", "in_short": "as §1"}, "SETVI (Foxtail, Green)": {"test_system": "SETVI (Foxtail, Green)", "experiment": "Preemergence herbicidal evaluation", "format": "in vivo, Setaria viridis", "conditions": "rated 4-5 weeks after treatment, rating scale 0-9", "in_short": "as §3"}},
  "data": [
    {"molecule": "CCOC(=O)CN1C(=O)C(COC)SC1=Nc1cc(-n2c(=O)cc(C(F)(F)F)n(C)c2=O)c(F)cc1Cl", "note": "(stereo not shown) [Compound 156, Ethyl 2-{{2-chloro-5-[3,6-dihydro-3-methyl-2,6-dioxo-4-(trifluoromethyl)-1(2H)-pyrimidinyl]-4-fluorophenyl}imino}-5-(methoxymethyl)-4-oxo-3-thiazolidine-acetate]", "values": [
      {"measurement": "Herbicidal rating GALAP", "setting": "GALAP (Galium) [1]; rate 0.0156 kg/ha", "result": 0.0},
      {"measurement": "Herbicidal rating GALAP", "setting": "GALAP (Galium) [1]; rate 0.0313 kg/ha", "result": 0.0},
      {"measurement": "Herbicidal rating GALAP", "setting": "GALAP (Galium) [1]; rate 0.0625 kg/ha", "result": 3.0},
      {"measurement": "Herbicidal rating GLXMAW", "setting": "[2]; rate 0.0156 kg/ha", "result": 5.5},
      {"measurement": "Herbicidal rating GLXMAW", "setting": "[2]; rate 0.0313 kg/ha", "result": 4.0},
      {"measurement": "Herbicidal rating GLXMAW", "setting": "[2]; rate 0.0625 kg/ha", "result": 5.5},
      {"measurement": "herbicidal effect rating, SAGPY", "setting": "[3]", "result": 0.0},
      {"measurement": "herbicidal effect rating, MOOVA", "setting": "MOOVA (Monochoria)", "result": 0.0},
      {"measurement": "Preemergence herbicidal rating ORYSAT", "setting": "ORYSAT (Rice, Tebonnet); rate 0.0313 kg/ha", "result": 0.0},
      {"measurement": "Preemergence herbicidal rating ORYSAT", "setting": "ORYSAT (Rice, Tebonnet); rate 0.0625 kg/ha", "result": 0.0},
      {"measurement": "Preemergence herbicidal rating ORYSAT", "setting": "ORYSAT (Rice, Tebonnet); rate 0.1250 kg/ha", "result": 0.0},
      {"measurement": "Preemergence herbicidal rating ORYSAT", "setting": "ORYSAT (Rice, Tebonnet); rate 0.2500 kg/ha", "result": 3.0},
      {"measurement": "Preemergence herbicidal rating GALAP", "setting": "GALAP (Galium) [4]; rate 0.0313 kg/ha", "result": 0.0},
      {"measurement": "Preemergence herbicidal rating GALAP", "setting": "GALAP (Galium) [4]; rate 0.0625 kg/ha", "result": 4.0},
      {"measurement": "Preemergence herbicidal rating GALAP", "setting": "GALAP (Galium) [4]; rate 0.1250 kg/ha", "result": 4.0},
      {"measurement": "Preemergence herbicidal rating GALAP", "setting": "GALAP (Galium) [4]; rate 0.2500 kg/ha", "result": 9.0},
      {"measurement": "herbicidal effect rating, ECHORC", "setting": "[5]", "result": 0.0},
      {"measurement": "Herbicidal rating TRZAWR", "setting": "[6]; rate 0.0156 kg/ha", "result": 3.0},
      {"measurement": "Herbicidal rating TRZAWR", "setting": "[6]; rate 0.0313 kg/ha", "result": 3.5},
      {"measurement": "Herbicidal rating TRZAWR", "setting": "[6]; rate 0.0625 kg/ha", "result": 4.0},
      {"measurement": "herbicidal effect rating, CYPSE", "setting": "CYPSE (Flatsedge)", "result": 0.0},
      {"measurement": "Herbicidal rating AMBEL", "setting": "AMBEL (Ragweed, Common); rate 0.0156 kg/ha", "result": 7.0},
      {"measurement": "Herbicidal rating AMBEL", "setting": "AMBEL (Ragweed, Common); rate 0.0313 kg/ha", "result": 7.0},
      {"measurement": "Herbicidal rating AMBEL", "setting": "AMBEL (Ragweed, Common); rate 0.0625 kg/ha", "result": 9.0},
      {"measurement": "Herbicidal rating CASOB", "setting": "CASOB (Sicklepod); rate 0.0156 kg/ha", "result": 0.0},
      {"measurement": "Herbicidal rating CASOB", "setting": "CASOB (Sicklepod); rate 0.0313 kg/ha", "result": 0.0},
      {"measurement": "Herbicidal rating CASOB", "setting": "CASOB (Sicklepod); rate 0.0625 kg/ha", "result": 1.0},
      {"measurement": "Preemergence herbicidal rating SETVI", "setting": "SETVI (Foxtail, Green); rate 0.0313 kg/ha", "result": 0.0},
      {"measurement": "Preemergence herbicidal rating SETVI", "setting": "SETVI (Foxtail, Green); rate 0.0625 kg/ha", "result": 2.0},
      {"measurement": "Preemergence herbicidal rating SETVI", "setting": "SETVI (Foxtail, Green); rate 0.1250 kg/ha", "result": 2.0},
      {"measurement": "Preemergence herbicidal rating SETVI", "setting": "SETVI (Foxtail, Green); rate 0.2500 kg/ha", "result": 9.0}
    ]}
  ]
}
